# Measurements: PubChem BioAssay (NCI)
#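 The concentration for 50% growth inhibition is given as GI50. TGI: total growth inhibition.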
# Tests used:
# Assay in all cases: NCI-60 cell line screen, 384-well format
# MCF7 breast = tested on: MCF7 breast
# TK-10 renal = tested on: TK-10 renal
# HS 578T breast = tested on: HS 578T breast
# UO-31 renal = tested on: UO-31 renal
# T-47D breast = tested on: T-47D breast
# SNB-75 CNS = tested on: SNB-75 CNS
# COLO 205 colon = tested on: COLO 205 colon
# DU-145 prostate = tested on: DU-145 prostate
# OVCAR-8 ovarian = tested on: OVCAR-8 ovarian
# ACHN renal = tested on: ACHN renal
# HCT-15 colon = tested on: HCT-15 colon
# NCI-H460 NSCLC = tested on: NCI-H460 NSCLC
# PC-3 prostate = tested on: PC-3 prostate
# SW-620 colon = tested on: SW-620 colon
# A498 renal = tested on: A498 renal
# NCI-H522 lung = tested on: NCI-H522 lung
# MDA-MB-468 breast = tested on: MDA-MB-468 breast
# UACC-257 melanoma = tested on: UACC-257 melanoma
# BT-549 breast = tested on: BT-549 breast
# CCRF-CEM leukemia = tested on: CCRF-CEM leukemia
# HL-60(TB) leukemia = tested on: HL-60(TB) leukemia
# NCI/ADR-RES ovarian = tested on: NCI/ADR-RES ovarian
# KM12 colon = tested on: KM12 colon
# SK-OV-3 ovarian = tested on: SK-OV-3 ovarian
# MDA-MB-231 breast = tested on: MDA-MB-231 breast
# A549 NSCLC = tested on: A549 NSCLC
# SK-MEL-28 melanoma = tested on: SK-MEL-28 melanoma
# OVCAR-4 ovarian = tested on: OVCAR-4 ovarian
# M14 melanoma = tested on: M14 melanoma
# RXF 393 renal = tested on: RXF 393 renal
# SR leukemia = tested on: SR leukemia
# HCT-116 colon = tested on: HCT-116 colon
# UACC-62 melanoma = tested on: UACC-62 melanoma
# HOP-92 NSCLC = tested on: HOP-92 NSCLC
# U251 glioblastoma = tested on: U251 glioblastoma
# SK-MEL-5 melanoma = tested on: SK-MEL-5 melanoma
# IGROV1 ovarian = tested on: IGROV1 ovarian
# CAKI-1 renal = tested on: CAKI-1 renal
# NCI-H226 lung = tested on: NCI-H226 lung
# SF-539 CNS = tested on: SF-539 CNS
# 786-0 renal = tested on: 786-0 renal
# NCI-H23 lung = tested on: NCI-H23 lung
# HCC-2998 colon = tested on: HCC-2998 colon
# SNB-19 CNS = tested on: SNB-19 CNS
# SF-295 CNS = tested on: SF-295 CNS
# MDA-MB-435 melanoma = tested on: MDA-MB-435 melanoma
# NCI-H322M lung = tested on: NCI-H322M lung
# OVCAR-5 ovarian = tested on: OVCAR-5 ovarian
# MALME-3M melanoma = tested on: MALME-3M melanoma
# SF-268 CNS = tested on: SF-268 CNS
# HOP-62 NSCLC = tested on: HOP-62 NSCLC
# MOLT-4 leukemia = tested on: MOLT-4 leukemia
# SN12C renal = tested on: SN12C renal
# RPMI-8226 leukemia = tested on: RPMI-8226 leukemia
# LOX IMVI melanoma = tested on: LOX IMVI melanoma
# EKVX NSCLC = tested on: EKVX NSCLC
# OVCAR-3 ovarian = tested on: OVCAR-3 ovarian
smiles,measurement,setting,value
CNC(=O)c1cc(Oc2ccc(NC(=O)Nc3ccc(Cl)c(C(F)(F)F)c3)c(F)c2)ccn1,GI50,MCF7 breast,1.93 µM
same,TGI,MCF7 breast,5.47 µM
same,GI50,TK-10 renal,3.49 µM
same,TGI,TK-10 renal,76.2 µM
same,GI50,HS 578T breast,2.33 µM
same,TGI,HS 578T breast,7.35 µM
same,GI50,UO-31 renal,2.02 µM
same,TGI,UO-31 renal,5.44 µM
same,GI50,T-47D breast,1.56 µM
same,TGI,T-47D breast,6.73 µM
same,GI50,SNB-75 CNS,5.14 µM
same,TGI,SNB-75 CNS,12.9 µM
same,GI50,COLO 205 colon,1.64 µM
same,TGI,COLO 205 colon,4.7 µM
same,GI50,DU-145 prostate,3.02 µM
same,TGI,DU-145 prostate,9.32 µM
same,GI50,OVCAR-8 ovarian,2.17 µM
same,TGI,OVCAR-8 ovarian,5.79 µM
same,GI50,ACHN renal,3.38 µM
same,TGI,ACHN renal,25.1 µM
same,GI50,HCT-15 colon,2.52 µM
same,TGI,HCT-15 colon,9.38 µM
same,GI50,NCI-H460 NSCLC,3.08 µM
same,TGI,NCI-H460 NSCLC,10.7 µM
same,GI50,PC-3 prostate,3.79 µM
same,TGI,PC-3 prostate,16.3 µM
same,GI50,SW-620 colon,2.97 µM
same,TGI,SW-620 colon,13.9 µM
same,GI50,A498 renal,3.66 µM
same,TGI,A498 renal,21.7 µM
same,GI50,NCI-H522 lung,2.83 µM
same,TGI,NCI-H522 lung,> 24.7 µM
same,GI50,MDA-MB-468 breast,1.72 µM
same,TGI,MDA-MB-468 breast,4.31 µM
same,GI50,UACC-257 melanoma,2.45 µM
same,TGI,UACC-257 melanoma,9.07 µM
same,GI50,BT-549 breast,3.2 µM
same,TGI,BT-549 breast,7.34 µM
same,GI50,CCRF-CEM leukemia,3.4 µM
same,TGI,CCRF-CEM leukemia,8.05 µM
same,GI50,HL-60(TB) leukemia,0.734 µM
same,TGI,HL-60(TB) leukemia,1.97 µM
same,GI50,NCI/ADR-RES ovarian,2.06 µM
same,TGI,NCI/ADR-RES ovarian,5.1 µM
same,GI50,KM12 colon,3.03 µM
same,TGI,KM12 colon,15.5 µM
same,GI50,SK-OV-3 ovarian,3.2 µM
same,TGI,SK-OV-3 ovarian,9.43 µM
same,GI50,MDA-MB-231 breast,1.35 µM
same,TGI,MDA-MB-231 breast,3.47 µM
same,GI50,A549 NSCLC,2.66 µM
same,TGI,A549 NSCLC,8.57 µM
same,GI50,SK-MEL-28 melanoma,1.39 µM
same,TGI,SK-MEL-28 melanoma,8.75 µM
same,GI50,OVCAR-4 ovarian,2.55 µM
same,TGI,OVCAR-4 ovarian,7.25 µM
same,GI50,M14 melanoma,1.69 µM
same,TGI,M14 melanoma,8.56 µM
same,GI50,RXF 393 renal,2.49 µM
same,TGI,RXF 393 renal,4.98 µM
same,GI50,SR leukemia,1.47 µM
same,TGI,SR leukemia,2.82 µM
same,GI50,HCT-116 colon,1.77 µM
same,TGI,HCT-116 colon,8.6 µM
same,GI50,UACC-62 melanoma,2.09 µM
same,TGI,UACC-62 melanoma,7.66 µM
same,GI50,HOP-92 NSCLC,2.27 µM
same,TGI,HOP-92 NSCLC,5.43 µM
same,GI50,U251 glioblastoma,3.06 µM
same,TGI,U251 glioblastoma,11 µM
same,GI50,SK-MEL-5 melanoma,1.6 µM
same,TGI,SK-MEL-5 melanoma,3.86 µM
same,GI50,IGROV1 ovarian,2.8 µM
same,TGI,IGROV1 ovarian,14.5 µM
same,GI50,CAKI-1 renal,2.67 µM
same,TGI,CAKI-1 renal,7.59 µM
same,GI50,NCI-H226 lung,1.93 µM
same,GI50,SF-539 CNS,2.13 µM
same,TGI,SF-539 CNS,6.63 µM
same,GI50,786-0 renal,2.47 µM
same,TGI,786-0 renal,7.76 µM
same,GI50,NCI-H23 lung,1.34 µM
same,TGI,NCI-H23 lung,3.43 µM
same,GI50,HCC-2998 colon,2.04 µM
same,TGI,HCC-2998 colon,5.98 µM
same,GI50,SNB-19 CNS,4.65 µM
same,TGI,SNB-19 CNS,> 88.5 µM
same,GI50,SF-295 CNS,2.13 µM
same,TGI,SF-295 CNS,6.02 µM
same,GI50,MDA-MB-435 melanoma,3.14 µM
same,TGI,MDA-MB-435 melanoma,14.6 µM
same,GI50,NCI-H322M lung,2.66 µM
same,TGI,NCI-H322M lung,6.21 µM
same,GI50,OVCAR-5 ovarian,5.79 µM
same,TGI,OVCAR-5 ovarian,28.5 µM
same,GI50,MALME-3M melanoma,0.719 µM
same,TGI,MALME-3M melanoma,3.09 µM
same,GI50,SF-268 CNS,4.28 µM
same,TGI,SF-268 CNS,14.4 µM
same,GI50,HOP-62 NSCLC,2.98 µM
same,TGI,HOP-62 NSCLC,10.1 µM
same,GI50,MOLT-4 leukemia,1.7 µM
same,TGI,MOLT-4 leukemia,3.2 µM
same,GI50,SN12C renal,3.16 µM
same,TGI,SN12C renal,11 µM
same,GI50,RPMI-8226 leukemia,1.73 µM
same,TGI,RPMI-8226 leukemia,3.3 µM
same,GI50,LOX IMVI melanoma,1.39 µM
same,TGI,LOX IMVI melanoma,3.99 µM
same,GI50,EKVX NSCLC,2.12 µM
same,TGI,EKVX NSCLC,5.43 µM
same,GI50,OVCAR-3 ovarian,4.55 µM
same,TGI,OVCAR-3 ovarian,12.6 µM
